For orientation: IC50 means the point on the concentration scale where inhibition reaches its midpoint. Low values mean greater potency, high ones weaker potency.

Consider 12 molecules from ChEMBL document CHEMBL1128865, “A systematic study of P1P3 spanning sidechains for the inhibition of HIV-1 protease” (Bioorg Med Chem Lett, 1995).

Structures are written as SMILES. Bounds are passed on as bounds.

Experiment [1] deals with Human immunodeficiency virus type 1 protease (Human immunodeficiency virus 1, UniProt Q72874). As to the kind of experiment: Inhibitory activity against HIV-1 protease.
Experiment [2] has as its system CCRF-CEM. As to the kind of experiment: Concentration required for inhibitory activity against CEM cells in a whole cell assay. The format is functional. The conditions noted are these: Homo sapiens, read-out: ED50 (the source's name).
In experiment [3] the test system is CCRF-CEM. The experiment can be described thus: Concentration required for inhibitory activity against CEM cells in a whole cell assay. The format is functional. The conditions noted are these: Homo sapiens, read-out: ED50 (the source's name).

In turn, `CC(C)(C)NC(=O)c1ccccc1C[C@@H](O)[C@H](CSc1ccccc1)NC(=O)[C@H](CC(N)=O)NC(=O)c1ccc2ccccc2n1` came in with an IC50 in experiment [1] of 1.1 nM.

In the case of `CC(C)(C)NC(=O)[C@@H]1C[C@@H]2CCCC[C@@H]2CN1C[C@@H](O)[C@H](Cc1ccccc1)NC(=O)[C@H](CC(N)=O)NC(=O)c1ccc2ccccc2n1`, in the experiment on CCRF-CEM [2], the EC50 came to 1.5 nM.

For `CC(C)(C)NC(=O)[C@@H]1C[C@@H]2CCCC[C@@H]2CN1C[C@@H](O)[C@H](CSc1ccccc1)NC(=O)[C@H](CC(N)=O)NC(=O)c1ccc2ccccc2n1`, in the experiment with CCRF-CEM [2], the EC50 worked out at 1.3 nM. Moreover, the IC50 in experiment [1] is 1.5 nM.

The molecule `CC(C)(C)NC(=O)c1ccccc1C[C@@H](O)[C@H](CSc1ccc2ccccc2c1)NC(=O)CCC(N)=O` displayed an IC50 in experiment [1] of over 80 nM.

Take `CC(C)(C)NC(=O)c1ccccc1C[C@@H](O)[C@H](Cc1ccccc1)NC(=O)[C@H](CC(N)=O)NC(=O)c1ccc2ccccc2n1`: in the experiment with CCRF-CEM [3], the EC50 came out at 23 nM.

Regarding `CC(C)(C)NC(=O)c1ccccc1C[C@@H](O)[C@H](CSc1ccc2ccccc2c1)NC(=O)[C@H](CC(N)=O)NC(=O)c1ccc2ccccc2n1`, the IC50 in experiment [1] was under 0.25 nM.

Molecule `CC(=O)N[C@@H](CC(N)=O)C(=O)N[C@@H](CSc1ccc2ccccc2c1)[C@H](O)Cc1ccccc1C(=O)NC(C)(C)C` yielded an IC50 in experiment [1] of 1.1 nM.

`CC(=O)N[C@@H](CC(N)=O)C(=O)N[C@@H](CSc1ccccc1)[C@H](O)Cc1ccccc1C(=O)NC(C)(C)C` returned an IC50 in experiment [1] of 19 nM.

`CC(C)(C)NC(=O)c1ccccc1C[C@@H](O)[C@H](CSc1ccc2ccccc2c1)NC(=O)[C@H](CC(N)=O)NC(=O)OCc1ccccc1` showed an IC50 in experiment [1] of 1.5 nM.

For the molecule `CC(C)(C)NC(=O)c1ccccc1C[C@@H](O)[C@H](CSc1ccccc1)NC(=O)[C@H](CC(N)=O)NC(=O)OCc1ccccc1`, the IC50 in experiment [1] turned out to be 14 nM.

In experiment [1], `CC(C)(C)NC(=O)c1ccccc1C[C@@H](O)[C@H](CSc1ccccc1)NC(=O)CCC(N)=O` had an IC50 of over 150 nM.

For the molecule `CC(C)(C)NC(=O)[C@@H]1C[C@@H]2CCCC[C@@H]2CN1C[C@@H](O)[C@H](CSc1ccc2ccccc2c1)NC(=O)[C@H](CC(N)=O)NC(=O)c1ccc2ccccc2n1`, in the experiment on CCRF-CEM [2], the EC50 amounted to 1.4 nM. In experiment [1], this molecule registered an IC50 of under 0.25 nM.
